From patent US20180327364A1, “MTOR INHIBITORS AND METHODS OF USE THEREOF” (Brandeis University, priority 2015, published 2018) come the findings set out here.

Molecules are shown by their SMILES.

The subject of one assay is firefly luciferase. Briefly: Luciferase assay in stably transduced luciferase HEK-293T cells. Type of assay: cell-based. The conditions noted are these: 100 μM Cbz-B3A, 4 h, anti-HA immunoblot. (Immunoblotting shows a protein as a band on a membrane.)
A further assay concerns the target T1, ubiquilin 4 (Homo sapiens, UniProt Q9NRR5).
T1 construct: endogenous in cells; host or cells: HEK-293T lysate
Briefly: Cellular thermal shift assay (CETSA) in HEK-293T lysate. The note with it: 100 μM Cbz-B3A, lysate incubated 30 min. The class given is binding. The protocol: CETSA was performed as previously described. Briefly, HEK-293T cells were lysed in DPBS with Roche complete protease inhibitor by 3 quick freeze thaws, centrifuged at 20,000 g for 20 min at 4° C., and the supernatant was adjusted to 4 mg/mL. Lysate was incubated with compound for 30 min and heated to different temperatures in a thermal cycler for 3 min, then cooled to room temperature for 3 min. All samples were then centrifuged at 20,000 g for 20 min at 4° C. and a western blot was run on the supernatant.

The next assay concerns BaF3/p210 cells. Briefly: CellTiter-Glo proliferation, BaF3/p210. The class given is cell-based. The note with it: Mus musculus, 48 h. The protocol: (§1) To determine cellular growth, CellTiter-Glo luminescent cell viability assay (Promega) was used per the manufacturer's instruction. To determine cytotoxicity, LDH release was measured with the LDH Cytotoxicity Assay Kit (Pierce) according to the manufacture's protocol. For 4 h assays, 96 well plates were seeded at 75,000 cells/mL for BaF3/p210 cells or K562 cells. For HEK-293T cells, 10,000 cells/well were plated 24 h before treatment. Cells were treated for 4 h at 37° C. and […] was removed from every well and used in the LDH Cytotoxicity assay per the manufacturer's protocol. For 48 h assays, 7,500 cells/mL of BaF3/p210 or K562 cells were incubated with compound at 37° C. for 48 h (200 μL/well). For HEK-293T cells, 1,000 cells/well were plated 24 h prior to compound treatment. After treatment, 50 μL was removed from each well for the LDH assay for all cell lines and 100 μL of mixed cells were removed and used with the CellTiter-Glo kit for K562 and BaF3/p210 cells. For HEK-293T cells, wells were treated directed with the CellTiter-Glo kit. Cytotoxicity or viability was measured by luminosity and absorbance on a microplate reader.
On the technique in general: In ATP-based viability assays light output follows the ATP content of the culture.

Another assay relates to NCI-60 cell lines. Briefly: NCI-60 DTP Human Tumor Cell Line Screen, all cell lines. The class given is cell-based. The note with it: 10 μM, 48 h. The protocol:
(§2) Screen was conducted as previously described, performed at Developmental Therapeutics Program NCI/NIH.

The target of assay [1] is T2, recombinant firefly luciferase (Photinus pyralis, UniProt P08659).
T2 construct: purchased Promega
Briefly: Recombinant luciferase assay. The class given is biochemical. The note with it: 100 μM compound, 10 min incubation. The protocol:
Stably transduced luciferase HEK-293T cells were plated in 96-well plates 24 h prior to treatment with 100 μM of Cbz-B3A, amine-B3A, acetyl-B3A, and Cbz-acetyl. After 4 h, cells were harvested and measured with Luciferase Assay System with Reporter Lysis Buffer from Promega according to the manufacturer's protocol. Before the addition of luciferin, protein concentration was measured by removing 2 μl of lysate from each well and adding it to diluted Bio-Rad Protein Assay Dye Reagent Concentrate, and the absorbance was measured at OD595. The protein concentration was used to normalize luciferase signal. For translation assays, cells were pretreated for 15 min with 100 μg/mL cycloheximide or 6 μM bortezomib. For the recombinant luciferase assay, Quantilum Recombinant Luciferase (Promega) was diluted 1:250,000 in reporter lysis buffer with 1 mg/mL BSA then mixed 1:1 with 200 μM compound in the same buffer for a final dilution of 1:500,000 and 100 μM compound in 20 μL. This was incubated for 10 min at room temperature then measured with Luciferase Assay System with Reporter Lysis Buffer from Promega according to the manufacturer's protocol.

For assay [2], the system named is K562 cells. Briefly: NCI-60 DTP Human Tumor Cell Line Screen, K562. The note with it: 48 h, read-out: inhibition of proliferation, K562. The class given is cell-based. On the procedure:
as §2

Assay [3] concerns K562 cells. Briefly: CellTiter-Glo proliferation, K562. The class given is cell-based. The conditions noted are these: Homo sapiens, 48 h. On the procedure: as §1
For a further assay, the system named is LC3 A/B II. Briefly: LC3 A/B II immunoblot (autophagy) in HEK-293T cells. The class given is cell-based. The conditions noted are these: Cbz-B3A 10 μM, rapamycin 20 nM, 4 h. The protocol:
(§3) Quantification of western blots was performed with ImageJ. Cells were lysed in RIPA buffer (1% NP-40, 1% NaDeoxycholate, 0.1% SDS, 10 mM TrisCl, 10 mM β-glycerophosphate, 10 mM Na pyrophosphate, 50 mM NaF, 200 μM Na vanadate, 1 mM EDTA, 500 μM EGTA, 1% benzonase, and supplemented with complete (Roche Diagnostics) protease inhibitors).

The subject of assay [4] is mTORC2 catalyzed phosphorylation of Akt. Briefly: Akt phosphorylation immunoblot (mTORC2) in HEK-293T cells. The class given is cell-based. The note with it: HEK-293T cells treated with Cbz-B3A. The protocol: as §3
For assay [5], the system named is p70s6k phosphorylation (mTORC1). Briefly: p70s6k phosphorylation immunoblot in HEK-293T cells. The class given is cell-based. The protocol:
as §3

Another assay has as its system mTOR. Briefly: mTOR level and mTOR phosphorylation immunoblot in HEK-293T cells. Type of assay: cell-based. The conditions noted are these: 10 μM, 4 h. On the procedure: as §3
A further assay deals with SR. Briefly: NCI-60 DTP Human Tumor Cell Line Screen, SR. The class given is cell-based. The conditions noted are these: 10 μM, 48 h. On the procedure: as §2
In a further assay the test system is TSC2. Briefly: TSC2 level immunoblot in HEK-293T cells. The class given is cell-based. The note with it: 10 μM, 4 h; p=0.19 vs DMSO. On the procedure: as §3
For another assay, the system named is HEK-293T cells. Briefly: CellTiter-Glo proliferation, HEK-293T. Type of assay: cell-based. The conditions noted are these: Homo sapiens, 48 h. On the procedure:
as §1

A further assay has as its system MOLT-4. Briefly: NCI-60 DTP Human Tumor Cell Line Screen, MOLT-4. The class given is cell-based. The note with it: 10 μM, 48 h. The protocol: as §2

T2 sequence (P08659 whole entry): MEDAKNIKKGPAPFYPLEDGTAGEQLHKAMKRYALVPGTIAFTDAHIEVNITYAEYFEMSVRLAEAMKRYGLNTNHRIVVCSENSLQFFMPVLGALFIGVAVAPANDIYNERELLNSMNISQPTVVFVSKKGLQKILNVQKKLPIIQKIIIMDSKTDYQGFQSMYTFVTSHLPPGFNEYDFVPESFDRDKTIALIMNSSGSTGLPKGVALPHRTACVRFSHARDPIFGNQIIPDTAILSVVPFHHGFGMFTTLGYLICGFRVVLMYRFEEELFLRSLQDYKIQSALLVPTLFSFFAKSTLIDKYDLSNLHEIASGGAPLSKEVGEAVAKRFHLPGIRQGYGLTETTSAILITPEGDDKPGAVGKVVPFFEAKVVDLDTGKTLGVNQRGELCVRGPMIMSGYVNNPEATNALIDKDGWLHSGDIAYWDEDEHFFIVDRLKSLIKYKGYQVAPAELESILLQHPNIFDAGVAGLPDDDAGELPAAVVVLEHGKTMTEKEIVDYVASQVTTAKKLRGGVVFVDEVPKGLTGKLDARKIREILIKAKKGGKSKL
T1 sequence (Q9NRR5 whole entry): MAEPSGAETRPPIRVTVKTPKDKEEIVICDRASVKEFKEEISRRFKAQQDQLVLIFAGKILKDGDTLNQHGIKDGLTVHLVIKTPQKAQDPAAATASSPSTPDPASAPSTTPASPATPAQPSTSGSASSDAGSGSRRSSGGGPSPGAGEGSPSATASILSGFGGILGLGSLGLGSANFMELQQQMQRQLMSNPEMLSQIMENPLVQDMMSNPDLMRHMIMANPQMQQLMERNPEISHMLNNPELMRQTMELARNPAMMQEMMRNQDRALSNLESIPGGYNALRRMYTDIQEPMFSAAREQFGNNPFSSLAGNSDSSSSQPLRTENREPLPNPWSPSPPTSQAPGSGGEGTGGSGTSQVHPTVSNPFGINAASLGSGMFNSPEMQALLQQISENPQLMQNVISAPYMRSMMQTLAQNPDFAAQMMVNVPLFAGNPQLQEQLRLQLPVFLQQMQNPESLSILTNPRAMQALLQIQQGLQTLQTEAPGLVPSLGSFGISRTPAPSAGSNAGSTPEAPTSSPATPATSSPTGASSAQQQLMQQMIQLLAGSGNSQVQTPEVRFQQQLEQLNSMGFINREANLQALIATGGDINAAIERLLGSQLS

As for `CC(C)(C)OC(=O)/N=C(\NCCC[C@H](NC(=O)OC(C)(C)C)C(=O)NCCCCCCNC(=O)OCc1ccccc1)NC(=O)OC(C)(C)C` [Cbz-B3A], the “decrease in amount of luciferase protein” value with firefly luciferase is “approximately 40%”. Besides, at ubiquilin 4, the “melting temperature shift of ubiquilin 4” value is listed as “clear shift to a lower melting temperature”. For the same compound, the inhibition at 10 µM with BaF3/p210 cells was 68%; with K562 cells [2] it was 39%; in the assay on K562 cells [3], 52%; in the assay on HEK-293T cells, 64%. Also, the “average decrease in proliferation, all cell lines” value in the assay on NCI-60 cell lines is given as 29%. Also, in assay [1], the “recombinant firefly luciferase signal (enzymatic activity)” value is given as “no reduction of signal”. Also, the “LC3 A/B II (autophagy)” value in the assay with LC3 A/B II is recorded as “increased LC3 A/B II to equivalent levels as rapamycin”. Moreover, the “Akt phosphorylation at Ser473” value in assay [4] is “No decrease in Akt phosphorylation”. The “p70s6k Ser371 phosphorylation” value in assay [5] (10 μM, 4 h) is on record as “did not inhibit phosphorylation”. In assay [5] (Homo sapiens, HEK-293T, 4 h, read-out: EC50 of inhibition of p70s6k Thr389 phosphorylation), the EC50 (usually the concentration giving half of the maximal effect) is ~5 µM. The “phosphorylation retained at Thr389 of p70s6k” value in assay [5] (at maximum inhibition) is “approximately 30%”. Besides, in the assay with mTOR, the “Ser2481 phosphorylation of mTOR” value is “no change in Ser2481 phosphorylation”. Also, in the assay with mTOR, the “levels of mTOR” value is listed as “did not change”. Moreover, the “phosphorylation of mTOR at Ser2448” value with mTOR is listed as “only a small effect”. Besides, the “decrease in proliferation, SR” value in the assay on SR is listed as 83%. In the assay on TSC2, the “amount of TSC2” value is on record as “appeared to increase the amount of TSC2”. Also, the “decrease in proliferation, MOLT-4” value with MOLT-4 was 80%.
